Source: patent publication US20230331690A1, “THC DERIVATIVES, ORAL DOSAGE FORMS COMPRISING SAME, USES THEREOF FOR TREATING DISEASES AND DISORDERS AND SYNTHESIS THEREOF” (BAR-ILAN UNIVERSITY, priority 2020, published 2023)
Where “and” joins values, the source holds several entries; their conditions need not be identical. Equal values may be shown once.

Assays:
hind paw of mice = assay: Electronic Von-Frey mechanical sensitivity (withdrawal thresholds) after Paclitaxel-induced neuropathic pain; format: in vivo; conditions: for Withdrawal test, test 1 / Withdrawal test, test 4 / Withdrawal test, test 5 / Withdrawal test, test 6 / Withdrawal test, test 2 / Withdrawal test, test 3: per animal; for Withdrawal test, All group average: 8 mice; for Withdrawal test, Average: average per animal; for Withdrawal test, Change from b.l.: group average vs baseline; for Withdrawal test, test 6: additional test
Method: Mechanical sensitivity was evaluated by measuring the changes in tactile sensitivity in the hind paw of mice, using an Electronic Von-Frey apparatus (EVF). Withdrawal thresholds were measured, using the EVF apparatus, first at baseline (time=0) and then following drug, in a few periods after administration, by applying an accurate force on specific areas of the skin and measuring the needed force for the mouse to lift its paw.
Paclitaxel was utilized for the stimulation of a chemotherapy-induced neuropathic pain. Paclitaxel is anti-cancer chemotherapy drug classified as a “plant alkaloid” and an “antimicrotubule agent”.
Mice were divided into three groups of 8 mice each, as follows: • (a) Group no. 1—Morphine as positive control; • (b) Group no. […] 3—synthetic THC derivative 9-Desmethyl THC.
A portion of Paclitaxel was administered to each mouse by i.p. injection, on days 1, 3, 5 and 7 from the beginning of the experiment. At day 8, withdrawal thresholds were measured first at baseline (time=0), thereafter each mouse received a single portion of a drug substance, at 5 mg/Kg body weight concentration, by oral gavage and measurements took place.
The first checking point was 1 hour after administration of each drug. For every mouse, its threshold for the pain perception in which it removes its hind paw after the stabbing of the Von-Frey hair has been checked. Needed force (in gram force units) was measured each time and was recorded for every checking. This test was repeated 5 times for each mouse consecutively.
This procedure was repeated for all the three groups. The next checking point was 3 hours after administration, where the last withdrawal thresholds measurements were performed on the next morning, on day 9, which was 24 hours after administration.
Morphine was utilized as a positive control where group no. 1 mice received morphine (dissolved in a saline solution (0.9%) and injected subcutaneously) as an analgesic agent, prior to the mechanical sensitivity tests.
The tests described in this example are complicated and depend on numerous factors. Accordingly, results above 10.0 gram force (marked with an asterisk) were not included in the evaluation of the experimental data. In cases of exceptional results, an additional test was performed mouse (test 6) in order to assure the exceptional result.

mice = assay: Hot plate assay, withdrawal reflex latency (WRL); format: in vivo; conditions: for Hot plate Time: per animal
[1] = t = 1 h after 5 mg/Kg single dose (oral gavage; morphine s.c.), * values >10.0 excluded from evaluation
[2] = t = 1 h after 5 mg/Kg, * values excluded
[3] = t = 3 h after 5 mg/Kg, * values excluded
[4] = t = 24 h after 5 mg/Kg, * values excluded

## CCCCCc1cc(O)c2c(c1)OC(C)(C)[C@@H]1CCC=C[C@@H]21 [9-Desmethyl THC, 9-desmethyl-THC]
Hind paw of mice; 1 h after 5 mg/Kg, vs baseline
  average decrease in the withdrawal thresholds: 10.2%
Hind paw of mice; 3 h after 5 mg/Kg
  decrease compared to baseline in the withdrawal thresholds: 12.1%
Hind paw of mice; [1]
  Withdrawal test, test 1: 4.0 gram force (2×) and 7.2 gram force and 5.1 gram force and 4.3 gram force and 4.9 gram force and 7.3 gram force and 5.3 gram force
Hind paw of mice; t = 1 h after 5 mg/Kg
  Withdrawal test, All group average: 5.55 gram force
  Withdrawal test, Average: 4.82 gram force and 5.82 gram force and 5.84 gram force and 6.20 gram force and 5.12 gram force and 5.18 gram force and 5.98 gram force and 5.42 gram force
  Withdrawal test, Change from b.l.: −10.2%
  Withdrawal test, test 4: 5.3 gram force (2×) and 5.7 gram force and 4.0 gram force and 4.3 gram force (2×) and 5.4 gram force and 4.5 gram force
  Withdrawal test, test 5: 4.3 gram force and 6.8 gram force (2×) and 4.4 gram force and 7.4 gram force and 4.6 gram force and 4.1 gram force and 5.6 gram force
  Withdrawal test, test 6: 6.3 gram force and 5.3 gram force
Hind paw of mice; [2]
  Withdrawal test, test 2: 6.1 gram force (2×) and 4.7 gram force and 9.8 gram force and 9.4 gram force and 6.7 gram force and 5.7 gram force and 4.0 gram force
  Withdrawal test, test 3: 4.4 gram force and 5.1 gram force and 4.2 gram force (2×) and 6.2 gram force and 5.7 gram force and 7.0 gram force and 7.7 gram force
Hind paw of mice; t = 3 h after 5 mg/Kg
  Withdrawal test, All group average: 5.43 gram force
  Withdrawal test, Average: 5.34 gram force and 5.02 gram force and 5.00 gram force and 5.62 gram force and 5.70 gram force (2×) and 5.22 gram force and 5.86 gram force
  Withdrawal test, Change from b.l.: −12.1%
  Withdrawal test, test 2: 5.1 gram force and 4.6 gram force and 4.8 gram force (2×) and 8.6 gram force (2×) and 4.7 gram force and 5.5 gram force
  Withdrawal test, test 4: 4.1 gram force and 5.0 gram force and 5.4 gram force (2×) and 9.5 gram force and 4.9 gram force and 6.0 gram force and 4.2 gram force
  Withdrawal test, test 5: 4.7 gram force (2×) and 6.3 gram force and 4.2 gram force and 4.3 gram force and 6.5 gram force and 6.8 gram force and 7.0 gram force
  Withdrawal test, test 6: 4.4 gram force and 4.9 gram force (2×)
Hind paw of mice; [3]
  Withdrawal test, test 1: 7.4 gram force and 5.0 gram force and 4.8 gram force and 4.3 gram force and 4.5 gram force and 4.6 gram force and 7.0 gram force and 6.8 gram force
  Withdrawal test, test 3: 5.4 gram force and 4.2 gram force and 5.8 gram force and 5.2 gram force and 4.0 gram force (3×) and 4.6 gram force
Hind paw of mice; t = 24 h after 5 mg/Kg
  Withdrawal test, All group average: 5.36 gram force
  Withdrawal test, Average: 6.58 gram force and 4.80 gram force and 5.28 gram force and 6.12 gram force and 4.96 gram force and 4.74 gram force and 5.16 gram force and 5.26 gram force
  Withdrawal test, Change from b.l.: −13.3%
  Withdrawal test, test 1: 5.4 gram force and 5.0 gram force (2×) and 4.2 gram force (3×) and 7.0 gram force and 7.1 gram force
  Withdrawal test, test 2: 6.9 gram force and 4.1 gram force (3×) and 4.7 gram force and 5.6 gram force and 4.4 gram force and 4.5 gram force
  Withdrawal test, test 3: 8.8 gram force and 4.1 gram force (2×) and 4.7 gram force and 4.2 gram force and 4.0 gram force and 5.6 gram force and 6.1 gram force
Hind paw of mice; [4]
  Withdrawal test, test 4: 4.4 gram force and 6.2 gram force and 8.1 gram force and 9.0 gram force and 5.0 gram force and 5.1 gram force and 7.6 gram force and 4.0 gram force
  Withdrawal test, test 5: 7.4 gram force and 4.6 gram force (2×) and *10.0 gram force and 5.8 gram force and 7.3 gram force and 4.0 gram force (2×)

## CN1CC[C@]23c4c5ccc(O)c4O[C@H]2[C@@H](O)C=C[C@H]3[C@H]1C5 [Morphine, reference compound]
Hind paw of mice; [1]
  Withdrawal test, test 1: 4.4 gram force (2×) and 8.5 gram force and 8.4 gram force and 5.2 gram force and 5.9 gram force and 4.7 gram force and 5.6 gram force
Hind paw of mice; t = 1 h after 5 mg/Kg
  Withdrawal test, All group average: 6.21 gram force
  Withdrawal test, Average: 5.68 gram force (2×) and 7.80 gram force and 7.17 gram force and 6.62 gram force and 6.02 gram force and 5.26 gram force and 5.45 gram force
  Withdrawal test, Change from b.l.: +6.7%
  Withdrawal test, test 4: 9.1 gram force and 8.3 gram force and 7.4 gram force and 6.5 gram force and 5.0 gram force and 4.2 gram force and 5.3 gram force and 4.4 gram force
  Withdrawal test, test 5: 4.2 gram force and 9.8 gram force and 5.7 gram force and 9.0 gram force and 4.9 gram force and 9.2 gram force and 7.5 gram force and 5.8 gram force
Hind paw of mice; t = 1 h after 5 mg/Kg, listed as morphine
  Withdrawal test, Change from b.l.: 6.7%
Hind paw of mice; [2]
  Withdrawal test, test 2: 6.5 gram force and 4.3 gram force and *10.3 gram force and 7.9 gram force and 8.3 gram force and 7.6 gram force and 4.2 gram force and 6.0 gram force
  Withdrawal test, test 3: 4.2 gram force and 8.1 gram force and *10.5 gram force and 4.5 gram force and 4.3 gram force and 4.4 gram force and 4.9 gram force and *10.2 gram force
Hind paw of mice; t = 3 h after 5 mg/Kg
  Withdrawal test, All group average: 5.79 gram force
  Withdrawal test, Average: 6.28 gram force and 6.00 gram force and 4.68 gram force and 5.50 gram force and 5.66 gram force and 5.12 gram force and 6.34 gram force and 5.34 gram force
  Withdrawal test, Change from b.l.: −0.5%
  Withdrawal test, test 2: 5.5 gram force (2×) and 6.8 gram force and 4.3 gram force and 6.1 gram force and 5.9 gram force and 4.4 gram force and 5.3 gram force
  Withdrawal test, test 4: 5.5 gram force and 4.9 gram force and 4.6 gram force and 4.3 gram force and 7.0 gram force and 5.3 gram force and 6.4 gram force and 5.8 gram force
  Withdrawal test, test 5: 6.9 gram force and 8.6 gram force and 5.5 gram force and 5.6 gram force and 4.6 gram force and 5.2 gram force and 6.1 gram force and 5.7 gram force
  Withdrawal test, test 6: 7.0 gram force and 4.5 gram force
Hind paw of mice; t = 3 h after 5 mg/Kg, listed as morphine
  Withdrawal test, Change from b.l.: −0.5%
Hind paw of mice; [3]
  Withdrawal test, test 1: 7.2 gram force and 5.3 gram force (2×) and *11.6 gram force and 6.6 gram force and 5.6 gram force and 6.4 gram force and 5.4 gram force
  Withdrawal test, test 3: 6.3 gram force and 4.4 gram force and 4.3 gram force (2×) and 4.9 gram force and 5.2 gram force and 8.4 gram force and 4.5 gram force
Hind paw of mice; t = 24 h after 5 mg/Kg
  Withdrawal test, All group average: 5.09 gram force
  Withdrawal test, Average: 5.23 gram force and 4.80 gram force and 5.44 gram force and 5.28 gram force and 4.32 gram force and 6.08 gram force and 4.54 gram force and 5.00 gram force
  Withdrawal test, Change from b.l.: −12.5%
  Withdrawal test, test 1: 5.2 gram force (2×) and 4.0 gram force (2×) and 4.3 gram force and 4.1 gram force and 6.9 gram force and 5.4 gram force
  Withdrawal test, test 2: 4.7 gram force (3×) and 5.2 gram force and 5.3 gram force and 5.8 gram force and 6.0 gram force and 4.0 gram force
  Withdrawal test, test 3: 4.5 gram force and 6.5 gram force and 4.1 gram force (2×) and 4.0 gram force and 4.8 gram force and 5.1 gram force and 4.2 gram force
  Withdrawal test, test 6: 6.5 gram force and 4.3 gram force
Hind paw of mice; t = 24 h after 5 mg/Kg, listed as morphine
  Withdrawal test, Change from b.l.: −12.5%
Hind paw of mice; [4]
  Withdrawal test, test 4: *12.9 gram force and 4.0 gram force and 4.1 gram force and 6.7 gram force and 4.7 gram force (2×) and 4.6 gram force and 7.4 gram force
  Withdrawal test, test 5: 6.5 gram force and 4.3 gram force (2×) and 9.4 gram force and 4.6 gram force and 4.1 gram force and 8.0 gram force and 4.0 gram force
mice; 5 mg/kg oral, t = 0.5 h
  Hot plate Avg. 6 mice: 14.43 s
mice; 5 mg/kg oral, t = 0.5 h, cut-off 30 s
  Hot plate Time: 15.7 s and 13.1 s and 10.5 s and 23.8 s and 12.4 s and 11.1 s
mice; 5 mg/kg oral, t = 3 h
  Hot plate Avg. 6 mice: 14.05 s
  Hot plate Time: 16.8 s and 11.4 s and 20.5 s and 12.6 s and 14.5 s and 8.5 s
mice; 5 mg/kg oral, t = 6 h
  Hot plate Avg. 6 mice: 14.25 s
  Hot plate Time: 12.7 s and 8.0 s and 26.6 s and 19.7 s and 12.0 s and 6.5 s
mice; 5 mg/kg oral, t = 24 h
  Hot plate Avg. 3 mice: 5.8 s
  Hot plate Time: 2.4 s and 9.0 s and 5.9 s
mice; 5 mg/kg, 0.5 h
  average increase in WRL compared to baseline (t=0): 26.9%
mice; 5 mg/kg, 3 h
  change in average WRL compared to t=0 at baseline: +23%
mice; 5 mg/kg, 6 h
  change in average WRL compared to baseline: +25%
mice; 5 mg/kg, 24 h, 3 animals
  average WRL less than baseline: about 50%
